Measured values as given in ChEMBL document CHEMBL2321855, “Synthesis, molecular modeling and evaluation of novel N'-2-(4-benzylpiperidin-/piperazin-1-yl)acylhydrazone derivatives as dual inhibitors for cholinesterases and Aβ aggregation” (Bioorg Med Chem Lett, 2013).

Key:
Cholinesterase [1] = target: T1, Cholinesterase (Equus caballus, UniProt P81908); assay: Inhibition of equine BuChE measured for 1 min by Ellman's method
[2] = target: Amyloid-beta precursor protein (Homo sapiens) (UniProt P05067); assay: Inhibition of amyloid beta (1 to 42) (unknown origin) aggregation at 100 uM by thioflavin-T fluorescence method relative to rifampicin
Sequence of Amyloid-beta precursor protein (Homo sapiens) (P05067 whole entry): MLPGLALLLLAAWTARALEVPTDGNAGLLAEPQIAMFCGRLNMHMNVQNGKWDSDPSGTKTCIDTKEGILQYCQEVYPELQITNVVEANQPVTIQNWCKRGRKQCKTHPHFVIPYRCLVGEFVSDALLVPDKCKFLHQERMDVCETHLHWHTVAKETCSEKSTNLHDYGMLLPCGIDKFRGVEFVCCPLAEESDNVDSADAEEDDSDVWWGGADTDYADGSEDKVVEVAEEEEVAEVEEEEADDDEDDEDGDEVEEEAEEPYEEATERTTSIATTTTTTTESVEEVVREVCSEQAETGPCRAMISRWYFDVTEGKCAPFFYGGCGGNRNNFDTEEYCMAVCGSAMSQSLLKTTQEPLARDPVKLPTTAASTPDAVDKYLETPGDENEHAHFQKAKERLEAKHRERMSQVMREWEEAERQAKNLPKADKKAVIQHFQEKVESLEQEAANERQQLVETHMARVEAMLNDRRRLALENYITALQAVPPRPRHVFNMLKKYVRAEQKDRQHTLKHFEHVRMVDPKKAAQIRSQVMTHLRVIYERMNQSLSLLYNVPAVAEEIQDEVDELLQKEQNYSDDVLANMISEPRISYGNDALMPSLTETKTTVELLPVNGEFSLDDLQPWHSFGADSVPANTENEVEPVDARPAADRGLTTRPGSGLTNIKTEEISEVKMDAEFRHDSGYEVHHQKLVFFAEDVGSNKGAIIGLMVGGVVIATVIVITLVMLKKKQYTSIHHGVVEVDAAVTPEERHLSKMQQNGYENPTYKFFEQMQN

[3] = target: Amyloid-beta precursor protein (Homo sapiens) (UniProt P05067); assay: Inhibition of amyloid beta (1 to 40_1 to 42) (unknown origin) aggregation at 100 uM by thioflavin-T fluorescence method relative to rifampicin
[4] = target: Amyloid-beta precursor protein (Homo sapiens) (UniProt P05067); assay: Inhibition of amyloid beta (1 to 40) (unknown origin) aggregation at 100 uM by thioflavin-T fluorescence method relative to rifampicin
Acetylcholinesterase = Acetylcholinesterase (Homo sapiens, UniProt P22303); assay: Inhibition of human recombinant AChE measured for 1 min by Ellman's method
Sequence of Acetylcholinesterase (P22303 whole entry): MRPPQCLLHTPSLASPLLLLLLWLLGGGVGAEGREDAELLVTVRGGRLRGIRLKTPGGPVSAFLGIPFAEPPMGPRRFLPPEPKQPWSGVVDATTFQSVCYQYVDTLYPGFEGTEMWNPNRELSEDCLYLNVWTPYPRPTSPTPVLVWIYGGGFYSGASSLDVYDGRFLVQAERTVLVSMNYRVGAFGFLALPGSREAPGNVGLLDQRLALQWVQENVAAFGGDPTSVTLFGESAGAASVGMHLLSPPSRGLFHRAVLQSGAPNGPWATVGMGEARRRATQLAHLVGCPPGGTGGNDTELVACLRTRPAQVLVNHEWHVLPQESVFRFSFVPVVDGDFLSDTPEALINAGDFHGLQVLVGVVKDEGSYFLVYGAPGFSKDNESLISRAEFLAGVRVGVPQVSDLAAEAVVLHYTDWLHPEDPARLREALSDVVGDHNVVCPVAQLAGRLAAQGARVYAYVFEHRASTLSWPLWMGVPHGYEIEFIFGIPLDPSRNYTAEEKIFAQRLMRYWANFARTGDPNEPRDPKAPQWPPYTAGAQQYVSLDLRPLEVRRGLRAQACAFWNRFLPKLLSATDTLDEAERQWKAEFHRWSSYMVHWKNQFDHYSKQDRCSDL

Cholinesterase [5] = target: T1, Cholinesterase; assay: Competitive inhibition of equine BuChE by Lineweaver-Burk plot analysis
Cholinesterase [6] = target: T1, Cholinesterase; assay: Mixed type inhibition of equine BuChE by Lineweaver-Burk plot analysis

T1 sequence (P81908 whole entry): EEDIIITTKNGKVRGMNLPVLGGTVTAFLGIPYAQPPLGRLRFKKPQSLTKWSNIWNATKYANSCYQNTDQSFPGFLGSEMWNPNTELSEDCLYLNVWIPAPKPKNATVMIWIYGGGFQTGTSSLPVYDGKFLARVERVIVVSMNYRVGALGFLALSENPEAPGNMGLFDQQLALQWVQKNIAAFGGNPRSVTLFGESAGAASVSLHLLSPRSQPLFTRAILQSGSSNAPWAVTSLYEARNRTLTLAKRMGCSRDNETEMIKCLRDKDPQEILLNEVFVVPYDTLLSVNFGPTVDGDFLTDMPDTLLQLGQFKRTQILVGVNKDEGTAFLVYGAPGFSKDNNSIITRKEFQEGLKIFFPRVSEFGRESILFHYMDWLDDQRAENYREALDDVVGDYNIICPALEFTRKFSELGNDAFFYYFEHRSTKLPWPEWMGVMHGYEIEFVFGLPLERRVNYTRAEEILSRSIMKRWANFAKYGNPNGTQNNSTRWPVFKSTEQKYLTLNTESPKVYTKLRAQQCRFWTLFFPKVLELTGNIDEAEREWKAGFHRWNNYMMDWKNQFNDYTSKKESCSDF

Question: Which results are given for `COc1ccc(/C=N/NC(=O)CN2CCN(Cc3ccccc3)CC2)cc1`?
Answer: IC50 (Cholinesterase [1]): 88.3 µM; inhibition [2]: 69%; inhibition [3]: 69%; inhibition [4]: 69%; IC50 (Acetylcholinesterase): 88.5 µM

Question: What does the source list for `CCOc1ccc(/C=N/NC(=O)CN2CCC(Cc3ccccc3)CC2)cc1`?
Answer: IC50 (Cholinesterase [1]): 67.3 µM; Ki (Cholinesterase [5]): 31.5 µM; inhibition [2]: 69%; inhibition [3]: 69%; inhibition [4]: 69%

Question: How did the IC50 (Cholinesterase [1]) turn out when `COc1ccc(/C=N/NC(=O)CN2CCC(Cc3ccccc3)CC2)cc1OC` was run?
Answer: 55.1 µM

Question: And the inhibition [2]?
Answer: 69%

Question: And the inhibition [3]?
Answer: 69%

Question: And the inhibition [4]?
Answer: 69%

Question: What about the IC50 (Acetylcholinesterase) of the same molecule?
Answer: 62.8 µM

Question: How did the Ki (Cholinesterase [6]) turn out when `COc1ccc(/C=N/NC(=O)CN2CCC(Cc3ccccc3)CC2)cc1` was run?
Answer: 30.5 µM

Question: And the IC50 (Cholinesterase [1])?
Answer: 48.8 µM

Question: And the inhibition [2]?
Answer: 69%

Question: And the inhibition [3]?
Answer: 69%

Question: What about the inhibition [4] of the same molecule?
Answer: 69%

Question: Which results are given for `COc1ccc(/C=N/NC(=O)CN2CCN(Cc3ccccc3)CC2)cc1OC`?
Answer: IC50 (Cholinesterase [1]): 71.7 µM; inhibition [2]: 69%; inhibition [3]: 69%; inhibition [4]: 69%; IC50 (Acetylcholinesterase): 81.1 µM

Question: Which IC50 (Cholinesterase [1]) does the source give for `CCOc1ccc(/C=N/NC(=O)CN2CCN(Cc3ccccc3)CC2)cc1` here?
Answer: 98.8 µM

Question: And the inhibition [2]?
Answer: 69%

Question: What about the inhibition [3] of the same molecule?
Answer: 69%

Question: What about the inhibition [4] of the same molecule?
Answer: 69%

Question: What about the IC50 (Acetylcholinesterase) of the same molecule?
Answer: 81.4 µM
